Results from publication PMC10174618, “Monoterpenoid aryl hydrocarbon receptor allosteric antagonists protect against ultraviolet skin damage in female mice” (Nature Communications, 2023).

What was measured:
Assay in all cases: biochemical
Set-up in all cases: KINOMEscan scanMAX active site-directed competition binding assay, percent of control, 468 kinases
Conditions in all cases: competition binding, percent of control
EPHA5 = EPHA5 (Homo sapiens, UniProt P54756)
Method in brief: (§1)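 KINOMEscan active site-directed competition binding assay against 468 human kinases with 100 μM S-carvone. Binding expressed as % of control, with 35% of control as the inhibition threshold.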

ERBB4 = ERBB4 (Homo sapiens, UniProt Q15303)
Method in brief: as §1

MYLK2 = MYLK2 (Homo sapiens, UniProt Q9H1R3)
Method in brief: as §1

TAOK1 = TAOK1 (Homo sapiens, UniProt Q7L7X3)
Method in brief: as §1

p38-gamma = molecular target: T1, p38-gamma (Homo sapiens, UniProt P53778)
T1 construct: gene MAPK12
Method in brief: as §1

STK35 = STK35 (Homo sapiens, UniProt Q8TDR2)
Chain of STK35 (Q8TDR2 whole entry): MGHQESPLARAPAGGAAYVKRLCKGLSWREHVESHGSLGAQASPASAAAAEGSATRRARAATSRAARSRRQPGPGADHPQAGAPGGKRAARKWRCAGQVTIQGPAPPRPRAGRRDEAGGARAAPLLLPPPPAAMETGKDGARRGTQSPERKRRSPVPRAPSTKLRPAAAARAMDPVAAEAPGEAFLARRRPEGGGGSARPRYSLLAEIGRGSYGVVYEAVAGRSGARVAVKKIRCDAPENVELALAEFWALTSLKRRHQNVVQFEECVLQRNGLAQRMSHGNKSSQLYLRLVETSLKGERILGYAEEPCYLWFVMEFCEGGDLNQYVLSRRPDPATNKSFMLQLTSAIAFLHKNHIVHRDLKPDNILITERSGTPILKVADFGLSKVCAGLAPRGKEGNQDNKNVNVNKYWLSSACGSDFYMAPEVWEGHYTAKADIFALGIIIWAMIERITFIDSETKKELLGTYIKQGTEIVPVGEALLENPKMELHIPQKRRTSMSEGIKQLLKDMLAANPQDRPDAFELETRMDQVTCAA
Method in brief: as §1

INSR = INSR (Homo sapiens, UniProt P06213)
Method in brief: as §1

DYRK1B = DYRK1B (Homo sapiens, UniProt Q9Y463)
Chain of DYRK1B (Q9Y463 whole entry): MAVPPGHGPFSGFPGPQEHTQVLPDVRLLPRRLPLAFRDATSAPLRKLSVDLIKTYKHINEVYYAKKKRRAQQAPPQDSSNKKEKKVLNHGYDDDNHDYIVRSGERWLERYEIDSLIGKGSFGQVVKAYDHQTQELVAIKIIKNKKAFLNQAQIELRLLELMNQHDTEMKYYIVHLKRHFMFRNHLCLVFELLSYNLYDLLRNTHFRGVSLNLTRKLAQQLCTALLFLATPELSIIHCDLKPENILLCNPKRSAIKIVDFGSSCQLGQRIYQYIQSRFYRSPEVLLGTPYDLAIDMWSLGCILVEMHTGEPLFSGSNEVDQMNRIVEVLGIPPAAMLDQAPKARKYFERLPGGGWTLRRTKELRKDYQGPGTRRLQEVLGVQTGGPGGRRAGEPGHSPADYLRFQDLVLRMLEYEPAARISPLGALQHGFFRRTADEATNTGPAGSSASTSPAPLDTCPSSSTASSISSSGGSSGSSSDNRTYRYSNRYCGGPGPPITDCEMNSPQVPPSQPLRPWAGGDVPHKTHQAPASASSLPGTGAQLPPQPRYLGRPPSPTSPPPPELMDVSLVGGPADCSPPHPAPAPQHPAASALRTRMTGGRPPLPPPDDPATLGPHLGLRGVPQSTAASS
Method in brief: as §1

IKK-alpha = molecular target: T2, IKK-alpha (Homo sapiens, UniProt O15111)
T2 construct: gene CHUK
Method in brief: as §1

TNK2 = TNK2 (Homo sapiens, UniProt Q07912)
Chain of TNK2 (Q07912 whole entry): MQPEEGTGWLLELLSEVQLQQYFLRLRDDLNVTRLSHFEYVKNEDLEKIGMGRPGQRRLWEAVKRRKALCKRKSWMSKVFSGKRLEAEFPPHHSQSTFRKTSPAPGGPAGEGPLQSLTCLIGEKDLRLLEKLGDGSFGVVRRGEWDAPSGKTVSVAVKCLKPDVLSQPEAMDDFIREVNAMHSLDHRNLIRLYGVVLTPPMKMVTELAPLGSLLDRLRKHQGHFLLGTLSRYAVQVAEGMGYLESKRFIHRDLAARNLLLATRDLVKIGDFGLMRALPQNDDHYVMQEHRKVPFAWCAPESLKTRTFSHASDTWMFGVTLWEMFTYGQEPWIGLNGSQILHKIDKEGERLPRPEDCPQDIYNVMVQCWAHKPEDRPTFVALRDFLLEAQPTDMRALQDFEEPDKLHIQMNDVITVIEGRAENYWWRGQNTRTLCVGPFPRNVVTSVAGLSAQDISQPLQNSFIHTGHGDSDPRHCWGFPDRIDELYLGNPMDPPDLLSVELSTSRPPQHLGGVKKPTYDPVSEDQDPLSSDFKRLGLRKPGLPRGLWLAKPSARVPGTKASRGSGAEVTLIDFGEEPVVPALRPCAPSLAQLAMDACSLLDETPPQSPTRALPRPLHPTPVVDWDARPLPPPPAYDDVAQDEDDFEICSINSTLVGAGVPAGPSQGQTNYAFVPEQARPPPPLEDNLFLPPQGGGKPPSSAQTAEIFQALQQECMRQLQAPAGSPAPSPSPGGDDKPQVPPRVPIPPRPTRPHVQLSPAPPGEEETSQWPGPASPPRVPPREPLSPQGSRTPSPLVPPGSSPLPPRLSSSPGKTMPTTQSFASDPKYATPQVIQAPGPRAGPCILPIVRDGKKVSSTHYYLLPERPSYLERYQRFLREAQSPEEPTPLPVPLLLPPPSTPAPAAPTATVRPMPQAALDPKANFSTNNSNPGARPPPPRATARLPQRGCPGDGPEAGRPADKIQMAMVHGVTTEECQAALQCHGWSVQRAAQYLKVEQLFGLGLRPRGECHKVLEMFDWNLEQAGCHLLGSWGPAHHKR
Method in brief: as §1

FLT3(ITD,F691L) = FLT3(ITD,F691L) (Homo sapiens, UniProt P36888, F691L/ITD)
Method in brief: as §1

BUB1 = BUB1 (Homo sapiens, UniProt O43683)
Method in brief: as §1

VPS34 = molecular target: T3, VPS34 (Homo sapiens, UniProt Q8NEB9)
T3 construct: gene PIK3C3
Method in brief: as §1

STK36 = STK36 (Homo sapiens, UniProt Q9NRP7)
Chain of STK36 (Q9NRP7 whole entry): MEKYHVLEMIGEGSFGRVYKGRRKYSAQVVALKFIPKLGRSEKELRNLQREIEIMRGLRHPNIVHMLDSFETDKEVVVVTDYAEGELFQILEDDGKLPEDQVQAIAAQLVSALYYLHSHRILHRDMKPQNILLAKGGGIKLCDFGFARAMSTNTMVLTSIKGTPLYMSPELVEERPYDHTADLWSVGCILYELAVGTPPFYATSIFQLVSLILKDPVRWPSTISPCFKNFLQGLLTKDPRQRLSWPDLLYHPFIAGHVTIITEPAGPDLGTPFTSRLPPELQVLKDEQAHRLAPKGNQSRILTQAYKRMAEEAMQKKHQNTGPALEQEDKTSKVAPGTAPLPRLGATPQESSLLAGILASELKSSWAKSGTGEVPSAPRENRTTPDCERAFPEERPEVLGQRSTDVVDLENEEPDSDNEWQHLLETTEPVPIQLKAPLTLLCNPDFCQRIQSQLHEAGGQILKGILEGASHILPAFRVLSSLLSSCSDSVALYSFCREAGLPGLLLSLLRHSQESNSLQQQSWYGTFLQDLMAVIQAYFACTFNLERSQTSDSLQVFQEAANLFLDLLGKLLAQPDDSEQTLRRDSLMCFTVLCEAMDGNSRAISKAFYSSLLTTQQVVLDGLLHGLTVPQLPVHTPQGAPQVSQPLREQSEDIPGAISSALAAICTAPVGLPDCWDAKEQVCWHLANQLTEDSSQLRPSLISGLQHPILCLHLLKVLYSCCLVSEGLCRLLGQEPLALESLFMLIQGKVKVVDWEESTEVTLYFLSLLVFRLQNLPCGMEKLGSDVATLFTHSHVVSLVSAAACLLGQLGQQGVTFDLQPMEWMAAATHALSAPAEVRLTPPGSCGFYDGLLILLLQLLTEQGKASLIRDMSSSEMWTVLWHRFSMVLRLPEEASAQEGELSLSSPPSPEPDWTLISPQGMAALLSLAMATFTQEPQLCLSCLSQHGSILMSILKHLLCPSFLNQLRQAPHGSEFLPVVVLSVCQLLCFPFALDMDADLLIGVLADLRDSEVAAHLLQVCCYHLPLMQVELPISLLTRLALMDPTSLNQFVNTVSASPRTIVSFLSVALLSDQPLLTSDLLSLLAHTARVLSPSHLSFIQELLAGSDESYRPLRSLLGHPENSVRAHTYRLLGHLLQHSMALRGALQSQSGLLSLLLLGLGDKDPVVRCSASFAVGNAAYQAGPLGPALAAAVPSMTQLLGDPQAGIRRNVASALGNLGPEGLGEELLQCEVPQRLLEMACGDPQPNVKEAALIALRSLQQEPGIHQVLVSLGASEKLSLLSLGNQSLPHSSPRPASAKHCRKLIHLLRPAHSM
Method in brief: as §1

FER = FER (Homo sapiens, UniProt P16591)
Method in brief: as §1

RET(M918T) = RET(M918T) (Homo sapiens, UniProt P07949, M918T)
Method in brief: as §1

CSF1R-autoinhibited = CSF1R-autoinhibited (Homo sapiens, UniProt P07333)
Method in brief: as §1

PKMYT1 = PKMYT1 (Homo sapiens, UniProt Q99640)
Method in brief: as §1

KIT-autoinhibited = KIT-autoinhibited (Homo sapiens, UniProt P10721)
Chain of KIT-autoinhibited (P10721 whole entry): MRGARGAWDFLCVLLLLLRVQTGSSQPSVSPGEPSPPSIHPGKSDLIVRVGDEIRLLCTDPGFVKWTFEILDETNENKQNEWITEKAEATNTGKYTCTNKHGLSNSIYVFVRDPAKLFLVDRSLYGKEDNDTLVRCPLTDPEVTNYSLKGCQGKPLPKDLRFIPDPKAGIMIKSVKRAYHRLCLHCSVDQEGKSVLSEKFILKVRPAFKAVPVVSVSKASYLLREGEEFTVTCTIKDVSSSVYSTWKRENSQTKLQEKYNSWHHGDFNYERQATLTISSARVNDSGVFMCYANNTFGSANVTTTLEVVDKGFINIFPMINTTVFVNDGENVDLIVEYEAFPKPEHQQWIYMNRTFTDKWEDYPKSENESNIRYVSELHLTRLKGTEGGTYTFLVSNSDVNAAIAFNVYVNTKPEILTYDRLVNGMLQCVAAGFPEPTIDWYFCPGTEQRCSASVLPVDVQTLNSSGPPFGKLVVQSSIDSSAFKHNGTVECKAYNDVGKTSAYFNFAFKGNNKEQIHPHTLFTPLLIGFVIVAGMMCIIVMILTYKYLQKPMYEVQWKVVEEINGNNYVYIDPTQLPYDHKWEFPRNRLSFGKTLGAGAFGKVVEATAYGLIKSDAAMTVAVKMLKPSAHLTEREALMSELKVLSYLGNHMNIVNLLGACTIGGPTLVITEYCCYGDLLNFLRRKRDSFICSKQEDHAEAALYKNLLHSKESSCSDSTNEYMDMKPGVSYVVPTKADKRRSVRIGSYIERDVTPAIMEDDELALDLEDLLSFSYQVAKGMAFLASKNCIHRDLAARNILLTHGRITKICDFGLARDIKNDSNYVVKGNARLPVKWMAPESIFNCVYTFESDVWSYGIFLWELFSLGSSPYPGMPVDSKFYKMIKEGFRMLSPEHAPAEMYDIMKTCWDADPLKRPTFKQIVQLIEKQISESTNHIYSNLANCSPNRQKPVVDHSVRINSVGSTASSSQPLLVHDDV
Method in brief: as §1

[1] = molecular target: EGFR(L747-E749del, A750P) (Homo sapiens, UniProt P00533, A750P/DEL747-749)
Method in brief: as §1

YSK1 = molecular target: T4, YSK1 (Homo sapiens, UniProt O00506)
T4 construct: gene STK25
Method in brief: as §1

MST3 = molecular target: T5, MST3 (Homo sapiens, UniProt Q9Y6E0)
T5 construct: gene STK24
T5 sequence (Q9Y6E0 whole entry): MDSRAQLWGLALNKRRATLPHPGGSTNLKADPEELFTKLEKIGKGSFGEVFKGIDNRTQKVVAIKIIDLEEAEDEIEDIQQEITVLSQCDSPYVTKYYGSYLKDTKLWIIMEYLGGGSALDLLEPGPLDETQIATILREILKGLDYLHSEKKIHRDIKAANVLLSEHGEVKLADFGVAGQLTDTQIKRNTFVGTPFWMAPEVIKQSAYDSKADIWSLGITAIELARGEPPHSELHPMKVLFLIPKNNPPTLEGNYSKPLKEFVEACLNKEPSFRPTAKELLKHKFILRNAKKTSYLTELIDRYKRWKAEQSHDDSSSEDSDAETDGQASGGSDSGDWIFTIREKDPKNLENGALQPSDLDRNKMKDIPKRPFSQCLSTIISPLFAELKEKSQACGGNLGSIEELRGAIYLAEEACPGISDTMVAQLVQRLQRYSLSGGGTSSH
Method in brief: as §1

## C=C(C)[C@H]1CC=C(C)C(=O)C1 [S-carvone]
EPHA5
  remaining binding at 100 µM: 61%
ERBB4
  remaining binding at 100 µM: 81%
MYLK2
  remaining binding at 100 µM: 100%
TAOK1
  remaining binding at 100 µM: 82%
p38-gamma
  remaining binding at 100 µM: 72%
STK35
  remaining binding at 100 µM: 92%
INSR
  remaining binding at 100 µM: 68%
DYRK1B
  remaining binding at 100 µM: 100%
IKK-alpha
  remaining binding at 100 µM: 72%
TNK2
  remaining binding at 100 µM: 93%
FLT3(ITD,F691L)
  remaining binding at 100 µM: 71%
BUB1
  remaining binding at 100 µM: 85%
VPS34
  remaining binding at 100 µM: 64%
STK36
  remaining binding at 100 µM: 69%
FER
  remaining binding at 100 µM: 75%
RET(M918T)
  remaining binding at 100 µM: 93%
CSF1R-autoinhibited
  remaining binding at 100 µM: 73%
PKMYT1
  remaining binding at 100 µM: 86%
KIT-autoinhibited
  remaining binding at 100 µM: 74%
[1]
  remaining binding at 100 µM: 86%
YSK1
  remaining binding at 100 µM: 73%
MST3
  remaining binding at 100 µM: 64%
